Source: the NIST ThermoML archive (doi:10.1021/je700152c)
Numbers after ± are expanded uncertainties.

Assay: molar heat capacity at saturation pressure; xn = mol fraction of the nth substance listed

CCCCn1cc[n+](C)c1.Cc1ccc(S(=O)(=O)[O-])cc1 [1-butyl-3-methylimidazolium tosylate] + O
Details	molar heat capacity [J/K/mol]
246.29 K, Crystal, x1 = 0.3	181.97 ± 1.9
247.04 K, Crystal, x1 = 0.37	195.61 ± 2
247.05 K, Crystal, x1 = 0.83	303.46 ± 2.9
247.42 K, Crystal, x1 = 0.3	183.98 ± 1.9
248.02 K, Metastable crystal, x1 = 0.83	322.49 ± 3.1
248.32 K, Crystal, x1 = 0.37	197.76 ± 2
248.55 K, Crystal, x1 = 0.3	185.99 ± 1.9
249.21 K, Crystal, x1 = 0.83	306.59 ± 2.9
249.59 K, Crystal, x1 = 0.37	199.9 ± 2
249.68 K, Crystal, x1 = 0.3	188.1 ± 1.9
249.95 K, Metastable crystal, x1 = 0.83	325.36 ± 3.1
250.8 K, Crystal, x1 = 0.3	190.22 ± 2
250.86 K, Crystal, x1 = 0.37	202.18 ± 2
251.37 K, Crystal, x1 = 0.83	309.46 ± 2.9
251.87 K, Metastable crystal, x1 = 0.83	328.49 ± 3.1
251.91 K, Crystal, x1 = 0.3	192.75 ± 2
252.13 K, Crystal, x1 = 0.37	204.32 ± 2.1
253.03 K, Crystal, x1 = 0.3	194.97 ± 2
253.39 K, Crystal, x1 = 0.37	206.85 ± 2.1
253.52 K, Crystal, x1 = 0.83	312.59 ± 2.9
253.79 K, Metastable crystal, x1 = 0.83	331.88 ± 3.1
254.13 K, Crystal, x1 = 0.3	197.41 ± 2
254.64 K, Crystal, x1 = 0.37	209.37 ± 2.1
255.24 K, Crystal, x1 = 0.3	200.05 ± 2
255.66 K, Crystal, x1 = 0.83	315.71 ± 2.9
255.7 K, Metastable crystal, x1 = 0.83	335.27 ± 3.1
255.89 K, Crystal, x1 = 0.37	212.02 ± 2.1
256.33 K, Crystal, x1 = 0.3	202.69 ± 2.1
257.13 K, Crystal, x1 = 0.37	214.67 ± 2.1
257.42 K, Crystal, x1 = 0.3	205.55 ± 2.1
257.6 K, Metastable crystal, x1 = 0.83	339.18 ± 3.1
257.79 K, Crystal, x1 = 0.83	318.84 ± 3.1
258.37 K, Crystal, x1 = 0.37	217.57 ± 2.1
258.51 K, Crystal, x1 = 0.3	208.4 ± 2.1
259.5 K, Metastable crystal, x1 = 0.83	342.83 ± 3.1
259.59 K, Crystal, x1 = 0.3	211.36 ± 2.1
259.6 K, Crystal, x1 = 0.37	220.6 ± 2.3
259.92 K, Crystal, x1 = 0.83	322.23 ± 3.1
260.66 K, Crystal, x1 = 0.3	214.43 ± 2.1
260.83 K, Crystal, x1 = 0.37	223.76 ± 2.3
261.38 K, Metastable crystal, x1 = 0.83	346.22 ± 3.1
261.73 K, Crystal, x1 = 0.3	217.6 ± 2.2
262.04 K, Crystal, x1 = 0.83	325.62 ± 3.1
262.05 K, Crystal, x1 = 0.37	227.04 ± 2.3
262.8 K, Crystal, x1 = 0.3	221.09 ± 2.2
263.25 K, Metastable crystal, x1 = 0.83	349.61 ± 3.1
263.26 K, Crystal, x1 = 0.37	230.45 ± 2.3
263.85 K, Crystal, x1 = 0.3	224.58 ± 2.2
264.15 K, Crystal, x1 = 0.83	329.27 ± 3.1
264.46 K, Crystal, x1 = 0.37	233.98 ± 2.3
264.9 K, Crystal, x1 = 0.3	228.28 ± 2.3
265.12 K, Metastable crystal, x1 = 0.83	353.26 ± 3.4
265.66 K, Crystal, x1 = 0.37	238.02 ± 2.4
265.94 K, Crystal, x1 = 0.3	232.09 ± 2.3
266.24 K, Crystal, x1 = 0.83	333.18 ± 3.1
266.85 K, Crystal, x1 = 0.37	241.93 ± 2.4
266.97 K, Crystal, x1 = 0.3	236 ± 2.3
266.99 K, Metastable crystal, x1 = 0.83	356.38 ± 3.4
268 K, Crystal, x1 = 0.3	240.55 ± 2.3
268.03 K, Crystal, x1 = 0.37	246.09 ± 2.4
268.33 K, Crystal, x1 = 0.83	337.35 ± 3.1
268.85 K, Metastable crystal, x1 = 0.83	360.03 ± 3.4
269.01 K, Crystal, x1 = 0.3	244.56 ± 2.4
269.2 K, Crystal, x1 = 0.37	250.51 ± 2.4
270.02 K, Crystal, x1 = 0.3	249.64 ± 2.4
270.37 K, Crystal, x1 = 0.37	255.18 ± 2.5
270.4 K, Crystal, x1 = 0.83	342.31 ± 3.1
270.7 K, Metastable crystal, x1 = 0.83	363.68 ± 3.4
271.02 K, Crystal, x1 = 0.3	254.4 ± 2.5
271.52 K, Crystal, x1 = 0.37	259.98 ± 2.5
272.01 K, Crystal, x1 = 0.3	258.84 ± 2.5
